The target in assay [1] is T1, tissue plasminogen activator (tPA) (Homo sapiens, UniProt P00750).
T1 construct: gene PLAT; Human recombinant tPA (Activase)
The assay is described as follows: chromogenic substrate protease assay with recombinant tPA; […] inhibition at […]; IC50 extrapolated ([…] min […], […] min […]). The format is biochemical.

The target of assay [2] is T1, tissue plasminogen activator (tPA). The assay is described as follows: chromogenic substrate protease assay with recombinant tPA (positive control inhibitor). The format is biochemical.

Where a name gives a salt, the structure may show the parent alone.

T1 sequence (P00750 36-562): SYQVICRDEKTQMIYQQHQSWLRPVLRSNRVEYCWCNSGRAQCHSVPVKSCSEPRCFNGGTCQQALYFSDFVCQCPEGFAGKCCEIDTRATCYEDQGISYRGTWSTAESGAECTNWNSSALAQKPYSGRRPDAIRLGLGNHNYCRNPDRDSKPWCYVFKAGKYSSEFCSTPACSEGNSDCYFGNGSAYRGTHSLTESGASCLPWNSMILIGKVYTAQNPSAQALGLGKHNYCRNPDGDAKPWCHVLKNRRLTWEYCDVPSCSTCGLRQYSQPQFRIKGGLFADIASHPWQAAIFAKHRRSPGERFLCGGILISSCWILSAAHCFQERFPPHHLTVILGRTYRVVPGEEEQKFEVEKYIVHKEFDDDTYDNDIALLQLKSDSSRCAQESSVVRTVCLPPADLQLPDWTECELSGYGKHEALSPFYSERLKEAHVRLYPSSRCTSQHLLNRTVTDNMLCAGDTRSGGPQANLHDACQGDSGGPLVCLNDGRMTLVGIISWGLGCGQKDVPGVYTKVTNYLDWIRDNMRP

The IC50 is the concentration that inhibits the measured activity by half. Consider `COc1cc(/C=C/c2cc(/C=C/c3ccc(O)c(OC)c3)n(-c3ccccc3)n2)ccc1O` [CNB-001], for which the IC50 in assay [1] is approximately 65.2 µM.

One may read the inhibition as the drop in the measured response relative to a control, in per cent. As for `N=C(N)c1ccc(C=C2CCCCC(=Cc3ccc(C(=N)N)cc3)C2=O)cc1` [tPA-STOP, 2,7-Bis-(4-amidinobenzylidene)-cycloheptan-1-one dihydrochloride], the inhibition at 5 µM in assay [2] was 83.4%.

The values are drawn from PMC4215513, “Effect of the Pleiotropic Drug CNB-001 on Tissue Plasminogen Activator (tPA) Protease Activity in vitro: Support for Combination Therapy to Treat Acute Ischemic Stroke” (Journal of neurology & neurophysiology, 2014).
